Source: patent publication US10440955B2, “Methods comprising a biocidal polyamine” (Curza Global, LLC, priority 2013, dated 2019)
Several values for one entry are separate records, joined by “and”; a condition that tells them apart may be missing. Equal values may be shown once. Where a name gives a salt, the structure may show the parent alone. One block for each molecule: values may come before it.

Key:
Format in all cases: cell-based
P. aeruginosa biofilms [1] = experiment: EBEC, high number biofilms on PEEK membranes, 10^9 to 10^2 CFU/PEEK membrane in 24 hours; details: Pseudomonas aeruginosa; Table 3B c3; group head missing; read-out: MICs (μg/mL) II: P. aeruginosa
Procedure: In addition to determining the MIC and the MBEC of polyamine compounds against planktonic bacteria and low number biofilms, our group wanted to determine the efficacy of polyamine compounds against high number biofilms. To do so, biofilms were grown on the surface of polyetheretherketone (PEEK) membranes using a membrane biofilm reactor. This reactor is similar to the CDC biofilm reactor, but rather than growing biofilms on coupon surfaces, the reactor was modified to hold PEEK membranes. In short, to grow biofilms within this system, 500 mL of brain heart infusion (BHI) broth were inoculated with 1 mL of a 0.5 McFarland. The reactor was placed on a hot plate set at 34° C. and the bacteria were grown under batch conditions for 24 hours. Following this protocol, biofilms typically grow to 10^9 CFU/PEEK membrane. […] A solution of 10% BHI was then flowed through the reactor at a rate of 6.94 mL/min for an additional 24 hours. PEEK membranes were then removed and placed into 2 mL of CAMHB that contained a desired concentration of polyamine compound or antibiotic. The EBEC was defined as the concentration of antimicrobial required to reduce a biofilm from approximately 10^9 CFU/PEEK membrane to approximately 10^2 CFU/PEEK membrane in a 24-hour period.

MRSA [2] = experiment: MIC against MRSA (as defined by CLSI); details: Staphylococcus aureus, FIG. 25
Procedure: To determine the MIC of the polyamine chains alone and the synthesized compounds against MRSA and P. aeruginosa ATCC 27853, a modified protocol from the Clinical and Laboratory Standards Institute (CLSI) guideline M26-A was used. […] All data was collected using cation adjusted MHB for standardization.
As mentioned, MRSA and P. aeruginosa ATCC 27853 were grown on Columbia blood agar plates prior to experimentation. From the blood agar plates, a 0.5 McFarland standard was made of each isolate. This equated to approximately 5×10^7 cells/mL for the MRSA isolate and approximately 3×10^7 cells/mL for the P. aeruginosa ATCC 27853 isolate. Of the 0.5 McFarland stock solution, 50 μL were added to MHB. […] All tests were performed such that a final volume of 5 mL of MHB were obtained. This provided a final bacterial concentration of approximately 5×10^5 cells/mL.
Each sample was incubated in glass test tubes at 37° C. for 24 hours, then plated in duplicate on tryptic soy agar (TSA) using a 10-fold dilution series. TSA plates were further incubated 24 hours at 37° C. The number of colony forming units (CFU) that grew were counted in order to calculate the number of bacteria that were present per mL in the original MHB solution.

P. aeruginosa biofilms [3] = experiment: MBEC, MBEC Inoculation Tray (Innovotech), to 10^2 CFU/peg in 24 hours; details: Pseudomonas aeruginosa; Table 3A c5; group head missing, probably MBEC; read-out: MICs (μg/mL): P. aeruginosa (second P. aeruginosa)
Source text: To determine the MBEC of each polyamine compound, the MBEC Inoculation Tray by Innovotech, formerly known as the Calgary biofilm device, was used. Within this device, biofilms grow on the surface of polystyrene pegs, 96 of which are attached to a lid. These pegs are inserted into a flat bottom 96-well plate. In this instance, the MBEC of a molecule was defined as the concentration of compound (in μg/mL) required to reduce 10^5 or 10^6 CFU/peg (biofilm levels varied by isolate) to 10^2 CFU/peg in a 24-hour period.
Following the manufacturer's guidelines, biofilms were grown on the surface of each peg by first making a 0.5 McFarland of each isolate. The 0.5 McFarland was diluted 1:100 in CAMHB. Into each well of a flat bottom 96-well plate, 150 μL of broth were pipetted. The plate was shaken at 100 rpm for 24 hours (P. aeruginosa and A. baumannii) or 48 hours (MRSA). The pegs were then placed into a separate flat bottom 96-well plate for 10 seconds with 200 μL of phosphate buffered saline (PBS) in each well to remove nonadherent cells. The lid was then placed into a 96-well plate that contained varying concentrations of antimicrobial with 200 μL per well. The plate was incubated for 24 hours at 37° C. after which time 100 μL of broth were plated on TSA. TSA plates were incubated 24 hours at 37° C. and the number of CFU counted to calculate the CFU/peg. […]

[4] = system: various bacterial cell cultures; experiment: Antimicrobial activity of polyamines in hydrogel on agar lawns; details: 0.5% CZ compound in 0.5% sodium hyaluronate gel, 500 uL on TSA lawn, 37 C for 24 hours
Procedure: A 0.5 McFarland standard of each bacteria was made, then individual lawns of bacteria spread onto the surface of tryptic soy agar (TSA). 500 uL of the suspended gel were placed on the center of each lawn. Plates were incubated at 37 C for 24 hours, then imaged. Images of the resulting gels are shown in FIGS. 30A to 30I show the effects of the polyamines CZ-86, CZ-100, and CZ-110 on various bacterial cell cultures.
The hydrogel that was used for those images is a LifeCore gel with 1% sodium hyaluronate (1% Sodium Hyaluronate Solution Part #82). The CZ compound was suspended in water at 1% (w/w) concentration and combined with the LifeCore gel 1:1 for a final product that contained 0.5% sodium hyaluronate and 0.5% CZ compound.

MRSA [5] = experiment: MIC, microdilution CLSI M26-A (Example 2); details: Staphylococcus aureus, 24 h, read-out: MIC (μg/mL/μM)
Procedure: The second test determined the minimum inhibitory concentration (MIC) of the compound against MRSA and P. aeruginosa ATCC 27853. […] This definition was consistent with the Clinical and Laboratory Standards Institute (CLSI). More specifically, the microdilution method as outlined in the M26-A CLSI guideline was used. All tests were performed with cation adjusted Mueller Hinton broth.

MIC (P. aeruginosa biofilms [1]): > 5000 µg/mL
MIC (MRSA [2]): > 1200 µg/mL
MIC (P. aeruginosa biofilms [3]): > 5000 µg/mL
Structure (SMILES): NCCCNCCCNCc1ccccc1 [CZ-7, benzylnorspermidine]

Structure (SMILES): CC(C)CNCCCNCCCNCc1cc(CNCCCNCCCNCC(C)C)cc(-c2ccccc2)c1 [CZ-86, N^1,N^1′-([1,1′-biphenyl]-3,5-diylbis(methylene))bis(N^3-(3-(isobutylamino)propyl)propane-1,3-diamine), hydrochloride salt]
zones of inhibition in bacterial lawns [4]: created zones of inhibition

Structure (SMILES): CN[C@H](CC(C)C)C(=O)N[C@H]1C(=O)N[C@@H](CC(N)=O)C(=O)N[C@H]2C(=O)N[C@H]3C(=O)N[C@H](C(=O)N[C@H](C(=O)O)c4cc(O)cc(O)c4-c4cc3ccc4O)[C@H](O)c3ccc(c(Cl)c3)Oc3cc2cc(c3O[C@@H]2O[C@H](CO)[C@@H](O)[C@H](O)[C@H]2O[C@H]2C[C@](C)(N)[C@H](O)[C@H](C)O2)Oc2ccc(cc2Cl)[C@H]1O [vancomycin, reference compound]
MIC (MRSA [5]): 10 µg/mL and 6.73 µM
